Reference: patent US11357850B2, “Methods for treating breast cancer using INOS-inhibitory compositions” (The Methodist Hospital, priority 2014, dated 2022)

Legend:
MCF10A = experiment: Western blot of PERK/eIF2α/ATF4/ATF3 axis with recombinant TGFβ1; format: cell-based; settings: 1400 W 4 mM co-treatment with recombinant TGFβ1 for 24 hrs
Source text: FIG. 3A, FIG. 3B, FIG. 3C, FIG. 3D, FIG. 3E, FIG. 3F, FIG. 3G, FIG. 311, FIG. 3I, and FIG. 3J show iNOS knockdown impairs tumorigenicity and EMT by a dual impact on HIF1α and endoplasmic reticulum (ER) stress/TGFβ/AFT4/ATF3 crosstalk. Proliferation (FIG. 3A), migration (FIG. 3B), and self-renewal capacity (primary and secondary mammospheres) (FIG. 3C) in MDA-MB-231 cells transfected with two different NOS2-directed shRNAs (shRNA1, shRNA2) compared with empty vector (shRNA-EV). […] Selective iNOS inhibition reduced hypoxia (HIF1α), ER stress markers (IRE1α, ATF4) (FIG. 3F), phospho-Smad2/3, Smad2/3 and mature TGFβ protein levels in MDA-MB-231 and SUM159 cells (FIG. 3G). FIG. 3H: Recombinant TGFβ1 (10 ng/mL for 24 hrs) activates the PERK/eIF2α/ATF4/ATF3 axis in MCF10A. […] FIG. 3J: Selective iNOS inhibition is postulated to impair EMT and tumor cell migration by an impact on HIF1α, ER stress (IRE1α/XBP1) and the crosstalk between ATF4, ATF3 and TGFβ. Results were normalized to empty vector. Data are presented as mean±SEM. ****p<0.0001, ***p<0.001, **p<0.01. One-way ANOVA and Bonferroni's post-hoc test;
Western Blot. Cells were cultured at a density of 2.5×10^5 cells/well in 6-well plates with or without iNOS inhibitors for 96 hrs. Cells were resuspended in 1× lysis buffer (Cell Signaling Technology, Inc.) and 1× protease/phosphatase inhibitor cocktail (Thermo Scientific). […]

MDA-MB-231 [1] = experiment: Western blot / RT-PCR of EMT, hypoxia, ER stress and TGFβ markers; format: cell-based, human
Procedure: (§1) Protein levels of iNOS and EMT-inducing factors were determined by Western blot with antibodies against: iNOS (N-20) and Twist1 (L-21) (Santa Cruz Biotechnology), Snail (C15D3), Slug (C19G7) and TCF8/Zeb1 (D80D3) (Cell Signaling) (1:1000 dilution). β-actin (Cell Signaling; 1:2000) was used as loading control;
(§2) Western Blot. […] Cells were resuspended in 1× lysis buffer (Cell Signaling Technology, Inc.) and 1× protease/phosphatase inhibitor cocktail (Thermo Scientific). Samples (30 μg protein) were boiled in 4×LDS sample buffer (Thermo Scientific) containing […] (Sigma-Aldrich) and subjected to SDS-PAGE electrophoresis in 4-20% polyacrylamide gels (Bio-Rad, Hercules, Calif., USA). Proteins were transferred onto nitrocellulose membranes (Bio-Rad) and non-specific binding was avoided incubating with 5% non-fat dry milk in 1×Tris-buffered saline (TBS) for 1 hr. Membranes were incubated overnight at 4° C. with primary antibodies (1:1,000 dilution; anti-β-Actin, 1:2,000 dilution). After washing and incubation with the appropriate secondary antibodies for 1 hr (1:2,000 dilution), membranes were washed and incubated with enhanced chemiluminescence substrate. Protein bands were developed in autoradiography films (Denville Scientific, Inc., Holliston, Mass., USA).
RT-PCR Analysis of Spliced XBP1. […] The PCR amplification (50 ng cDNA) was done with […] Taq DNA polymerase (native, 5 U/μL), 0.2 mM dNTP, 1.5 mM MgCl2 (50 mM) and 0.5 μM of each primer.

SUM159 [2] = experiment: Western blot of EMT, hypoxia, ER stress and TGFβ markers; format: cell-based, human
Procedure: as §1, §2

MDA-MB-231 [3] = experiment: Cell migration, wound healing assay; format: cell-based, human; settings: 96 hrs treatment, wound healing 12 hrs
Procedure: (§3) FIG. 18A and FIG. 18B show the migration of MDA-MB-231 and SUM159 cells was assessed by “wound healing” assay. Briefly, 3×10^5 cells were plated in a 6-well plate until confluence in growth medium. […] A “wound” was then created in the cell monolayer. Images were taken at 0 and 12 hrs. Wound-healing capacity was determined with the software Image J. Data were replicated in three independent experiments. Results were normalized to vehicle;
(§4) Cell migration capacity. Cell migration was determined with a “wound healing assay.” Briefly, 3×10^5 cells/well were grown in 6-well plates until confluence. […] To avoid an impact on cell proliferation, low serum medium was changed by regular growth medium in presence of inhibitors for 24 hrs (96 hrs total). A “wound” was then created in the cell monolayer with a 100-4, pipette tip. Images were taken at 0 hrs, and cells were allowed to heal the wound for 12 hrs. Wound-healing capacity was determined with the software Image J. Data were replicated in three independent experiments.

SUM159 [4] = experiment: Cell migration, wound healing assay; format: cell-based, human; settings: 96 hrs treatment, wound healing 12 hrs
Procedure: as §3, §4

HRT-18 cells = settings: daily treatment with 500 μM; cited from earlier work
[5] = test system: adenoid cystic carcinoma of the oral cavity; settings: mouse, in vivo; cited from earlier work
MDA-MB-231 xenografts = experiment: Lung metastases-preventing study, MDA-MB-231 L/G xenografts; format: in vivo, mice
Procedure: For the lung metastases-preventing study, MDA-MB-231 L/G cells were implanted as described above. The mice were randomized and treatments started 48 hrs after cell injection (n=5/group): 1) Vehicle (saline, i.p.), 2) L-NAME (80 mg/kg, i.p., daily for 35 days). Previous injection of luciferin, lungs were removed and washed in cold DMEM+10% FBS+1% antibiotics/antimycotic. Then, lungs were incubated in cold DMEM media containing 50 μM luciferin for 10 min. This protocol avoids the time lapse between lung extraction and exposure to luciferin. Fluorescent cancer cells were detected with an IVIS-200 in vivo imaging system (Perkin Elmer, Inc., Santa Clara, Calif., USA).
Self-renewal and tumor-initiating capacity was determined by MSFE and limiting-dilution assays, respectively, in single cells isolated from tumor tissue. Briefly, breast tumor tissue was minced, digested in DMEM:F12 medium with 100 U/mL of collagenase type 3 (Worthington, Lakewood, N.J., USA) and 0.8 U/mL of dispase (Gibco, Carlsbad, Calif., USA) at 37° C. for 45 min. MSFE was assayed in isolated single cells as stated above. The limiting dilution assay (LDA) was performed injecting either […] isolated cells from tumor tissue in the mammary fat pad of SCID Beige mice (n=12/group). Flow cytometric analysis of CD44^+/CD24^−/low cell population was assayed using published methods.
iNOS inhibition reduces tumor growth, tumor initiating capacity and prevents lung metastases in mouse models of triple negative breast cancer. Based on the in vitro data, the inventor next investigated whether iNOS inhibition was able to prevent tumor initiation and metastasis of breast tumor cells in a mouse model of lung metastases. Daily i.p. injections of 80 mg/kg L-NAME were given to MDA-MB-231 xenograft-bearing mice for 35 days. […] Additionally, tumor-initiating capacity of CSC was assessed with a limiting dilution assay (LDA) by injecting single cells isolated from tumor tissue (5×10^5 or 1×10^5 cells) in the right mammary fat pad. All the animals of vehicle group (n=5) developed tumors whereas treatment with L-NAME yielded 3/5 tumors at 1.5 weeks with 5×10^5 cells.
The inventor then examined whether iNOS inhibition was able to suppress metastasis to lungs in TNBC xenografts model. The luciferase/GFP-based MDA-MB-231 (MDA-MB-231 L/G) xenograft mouse model mimics the metastatic process to the lungs in patients. In this model of lung metastasis, cells metastasize from the primary tumor to lungs in ˜35 days after implantation. MDA-MB-231 L/G cells were injected in the right mammary fat pad of SCID mice and 80 mg/kg L-NAME was given daily for 35 days.

EMT-6 cells = settings: mouse, in vivo; cited from earlier work
C3L5 and C10 = settings: cited from earlier work
[6] = millimolar and micromolar concentrations, 96 hrs

CC(=N)NCc1cccc(CN)c1 [1400 W, N-[[3-(aminomethyl)phenyl]methyl]-ethanimidamide]
stimulation of ATF4 and ATF3 protein levels by TGFβ1 (MCF10A): inhibit the stimulation of ATF4 and ATF3 protein levels | ER stress markers IRE1α/splicedXBP1 and ATF4 (MDA-MB-231 [1]; 96 hrs): dose-dependent decrease | hypoxia (HIF1α) (MDA-MB-231 [1]; 96 hrs): dose-dependent decrease | TGFβ signaling (phospho-Smad2/3, Smad2/3 and mature TGFβ) (MDA-MB-231 [1]; absence and presence of recombinant TGFβ1 (10 ng/mL for 72 hrs)): inhibit TGFβ signaling | protein levels of the EMT transcription factors Snail, Slug, and Twist1 (MDA-MB-231 [1]; [6]): reduction in protein levels | Zeb1 protein levels (MDA-MB-231 [1]; millimolar concentrations): decreased | hypoxia (HIF1α) (SUM159 [2]; 96 hrs): dose-dependent decrease | TGFβ signaling (phospho-Smad2/3, Smad2/3 and mature TGFβ) (SUM159 [2]; absence of recombinant TGFβ1): inhibit TGFβ signaling | protein levels of the EMT transcription factors Snail, Slug, and Twist1 (SUM159 [2]; [6]): reduction in protein levels | Zeb1 protein levels (SUM159 [2]; millimolar concentrations): decreased | ER stress markers IRE1α and ATF4 (SUM159 [2]; splicedXBP1 was not detected in SUM159 cells): dose-dependent decrease | migration (MDA-MB-231 [3]; micromolar range): marked dose-dependent decrease in migration | migration (MDA-MB-231 [3]; millimolar range): marked dose-dependent decrease in migration | migration (SUM159 [4]; micromolar range): marked dose-dependent decrease in migration | migration (SUM159 [4]; millimolar range): marked dose-dependent decrease in migration | invasiveness (HRT-18 cells): substantially decreased | spontaneous lung metastasis [5]: markedly inhibit spontaneous lung metastasis

COC(=O)[C@@H](N)CCCNC(=N)N[N+](=O)[O-] [L-NAME, N^5-[imino(nitroamino)methyl]-L-ornithine methyl ester]
ex vivo imaging of lungs in presence of luciferin (lung metastasis) (MDA-MB-231 xenografts; 80 mg/kg daily for 35 days): higher fluorescence in vehicle group compared to L-NAME group | MSFE of primary MS of cells isolated from tumor tissue (MDA-MB-231 xenografts; 80 mg/kg i.p. daily for 35 days): significantly reduced | tumor growth (MDA-MB-231 xenografts; 80 mg/kg i.p. daily for 35 days, p=0.001): significantly reduced tumor growth | secondary MSFE of cells isolated from tumor tissue (MDA-MB-231 xenografts; 80 mg/kg i.p. daily, compared to vehicle group): diminished but not significantly | limiting dilution assay, tumors developed (MDA-MB-231 xenografts; 1.5 weeks with 5×10^5 cells, vehicle all animals (n=5)): 3/5 | limiting dilution assay, tumors developed (MDA-MB-231 xenografts; 2.5 weeks with 1×10^5 cells): 0/5 | tumor growth and lung metastasis (EMT-6 cells): decrease tumor growth and lung metastasis | invasive and migrating potential (C3L5 and C10): inhibited the invasive and migrating potential
